Test results as given in US7863289B2, “Compounds and methods for kinase modulation, and indications therefor” (Plexxikon, Inc., priority 2006, dated 2011).

Legend:
Format in all cases: biochemical
Kdr = Kdr (Homo sapiens, UniProt P35968); experiment: Kinase activity assay, Kdr; details: under the test conditions employed; read-out: activity toward kinase Kdr, IC50
Text: (§1) Assays for the activity of kinases, including, but not limited to, B-Raf, B-Raf V600E, B-Raf […] and c-Raf-1 are known in the art, for example as described in U.S. patent application Ser. No. 11/473,347 (see Iso, PCT publication WO2007002433), the disclosure of which is hereby incorporated by reference in its entirety.

Kit = Kit (Homo sapiens, UniProt P10721); experiment: Kinase activity assay, Kit; details: under the test conditions employed; read-out: activity toward kinase Kit, IC50
Text: as §1

B-Raf V600E = B-Raf V600E (Homo sapiens, UniProt P15056, V600E); experiment: Kinase activity assay, B-Raf V600E; details: under the test conditions employed; read-out: activity toward kinase B-Raf V600E, IC50
Text: as §1

Flt1 = Flt1 (Homo sapiens, UniProt P17948); experiment: Kinase activity assay, Flt1; details: under the test conditions employed; read-out: activity toward kinase Flt1, IC50
Text: as §1

B-Raf = B-Raf (Homo sapiens, UniProt P15056); experiment: Kinase activity assay, B-Raf; details: under the test conditions employed; read-out: activity toward kinase B-Raf, IC50
Text: as §1

c-Raf-1 = c-Raf-1 (Homo sapiens, UniProt P04049); experiment: Kinase activity assay, c-Raf-1; details: under the test conditions employed; read-out: activity toward kinase c-Raf-1, IC50
Text: as §1

Src = Src (Homo sapiens, UniProt P12931); experiment: Kinase activity assay, Src; details: under the test conditions employed; read-out: activity toward kinase Src, IC50
Text: as §1

TEC = biological target: T1, TEC (Homo sapiens, UniProt P42680); experiment: Kinase activity assay, TEC; details: under the test conditions employed; read-out: activity toward kinase TEC, IC50
T1 sequence (P42680 1-631): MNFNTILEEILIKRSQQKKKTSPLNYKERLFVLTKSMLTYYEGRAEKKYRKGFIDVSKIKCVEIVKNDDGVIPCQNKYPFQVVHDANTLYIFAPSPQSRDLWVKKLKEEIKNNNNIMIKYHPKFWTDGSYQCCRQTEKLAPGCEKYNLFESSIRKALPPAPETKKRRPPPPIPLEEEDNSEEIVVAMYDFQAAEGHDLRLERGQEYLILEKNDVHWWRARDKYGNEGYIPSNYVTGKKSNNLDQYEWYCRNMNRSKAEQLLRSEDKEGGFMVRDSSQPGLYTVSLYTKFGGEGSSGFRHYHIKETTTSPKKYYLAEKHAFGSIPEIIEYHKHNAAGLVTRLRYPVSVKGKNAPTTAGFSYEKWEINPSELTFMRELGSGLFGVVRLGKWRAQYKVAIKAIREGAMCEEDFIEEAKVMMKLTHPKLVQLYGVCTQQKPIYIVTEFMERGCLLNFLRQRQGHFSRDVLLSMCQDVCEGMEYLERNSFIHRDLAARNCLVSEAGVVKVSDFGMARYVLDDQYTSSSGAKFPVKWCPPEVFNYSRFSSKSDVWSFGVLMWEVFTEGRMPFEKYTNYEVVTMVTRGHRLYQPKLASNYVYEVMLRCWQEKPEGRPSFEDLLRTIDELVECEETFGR
Text: as §1

Fms = Fms (Homo sapiens, UniProt P07333); experiment: Kinase activity assay, Fms; details: under the test conditions employed; read-out: activity toward kinase Fms, IC50
Text: as §1

Btk = Btk (Homo sapiens, UniProt Q06187); experiment: Kinase activity assay, Btk; details: under the test conditions employed; read-out: activity toward kinase Btk, IC50
Text: as §1

Jnk1 = Jnk1 (Homo sapiens, UniProt P45983); experiment: Kinase activity assay, Jnk1; details: under the test conditions employed; read-out: activity toward kinase Jnk1, IC50
Text: as §1

HGK = HGK (Homo sapiens, UniProt O95819); experiment: Kinase activity assay, HGK; details: under the test conditions employed; read-out: activity toward kinase HGK, IC50
Text: as §1

Measured: IC50

Sequence of Kit (P10721 26-976): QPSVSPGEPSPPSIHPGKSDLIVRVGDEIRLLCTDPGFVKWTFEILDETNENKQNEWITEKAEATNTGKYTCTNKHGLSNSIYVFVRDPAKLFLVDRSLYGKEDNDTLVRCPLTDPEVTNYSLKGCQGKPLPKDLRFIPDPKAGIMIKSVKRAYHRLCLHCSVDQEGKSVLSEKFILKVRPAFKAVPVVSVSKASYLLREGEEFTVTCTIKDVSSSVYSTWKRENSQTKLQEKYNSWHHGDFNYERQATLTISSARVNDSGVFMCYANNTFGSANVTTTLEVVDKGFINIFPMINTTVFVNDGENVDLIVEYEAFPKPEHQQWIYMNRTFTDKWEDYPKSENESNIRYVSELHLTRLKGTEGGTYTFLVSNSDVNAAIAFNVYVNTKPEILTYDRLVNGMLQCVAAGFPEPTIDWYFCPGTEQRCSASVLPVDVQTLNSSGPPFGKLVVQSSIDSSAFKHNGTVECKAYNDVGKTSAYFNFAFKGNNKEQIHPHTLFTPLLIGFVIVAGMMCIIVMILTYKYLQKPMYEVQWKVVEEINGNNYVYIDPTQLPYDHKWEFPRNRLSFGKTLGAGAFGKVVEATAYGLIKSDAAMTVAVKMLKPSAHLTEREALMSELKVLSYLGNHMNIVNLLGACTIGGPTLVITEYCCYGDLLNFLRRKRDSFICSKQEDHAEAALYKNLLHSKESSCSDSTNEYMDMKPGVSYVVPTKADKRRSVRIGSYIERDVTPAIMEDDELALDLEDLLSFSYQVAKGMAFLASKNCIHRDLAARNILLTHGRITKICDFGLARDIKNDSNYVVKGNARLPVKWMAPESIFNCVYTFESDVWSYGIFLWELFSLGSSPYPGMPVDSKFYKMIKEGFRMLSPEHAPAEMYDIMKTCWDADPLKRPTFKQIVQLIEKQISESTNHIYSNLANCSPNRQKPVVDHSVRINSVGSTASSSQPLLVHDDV
Sequence of Flt1 (P17948 27-1338): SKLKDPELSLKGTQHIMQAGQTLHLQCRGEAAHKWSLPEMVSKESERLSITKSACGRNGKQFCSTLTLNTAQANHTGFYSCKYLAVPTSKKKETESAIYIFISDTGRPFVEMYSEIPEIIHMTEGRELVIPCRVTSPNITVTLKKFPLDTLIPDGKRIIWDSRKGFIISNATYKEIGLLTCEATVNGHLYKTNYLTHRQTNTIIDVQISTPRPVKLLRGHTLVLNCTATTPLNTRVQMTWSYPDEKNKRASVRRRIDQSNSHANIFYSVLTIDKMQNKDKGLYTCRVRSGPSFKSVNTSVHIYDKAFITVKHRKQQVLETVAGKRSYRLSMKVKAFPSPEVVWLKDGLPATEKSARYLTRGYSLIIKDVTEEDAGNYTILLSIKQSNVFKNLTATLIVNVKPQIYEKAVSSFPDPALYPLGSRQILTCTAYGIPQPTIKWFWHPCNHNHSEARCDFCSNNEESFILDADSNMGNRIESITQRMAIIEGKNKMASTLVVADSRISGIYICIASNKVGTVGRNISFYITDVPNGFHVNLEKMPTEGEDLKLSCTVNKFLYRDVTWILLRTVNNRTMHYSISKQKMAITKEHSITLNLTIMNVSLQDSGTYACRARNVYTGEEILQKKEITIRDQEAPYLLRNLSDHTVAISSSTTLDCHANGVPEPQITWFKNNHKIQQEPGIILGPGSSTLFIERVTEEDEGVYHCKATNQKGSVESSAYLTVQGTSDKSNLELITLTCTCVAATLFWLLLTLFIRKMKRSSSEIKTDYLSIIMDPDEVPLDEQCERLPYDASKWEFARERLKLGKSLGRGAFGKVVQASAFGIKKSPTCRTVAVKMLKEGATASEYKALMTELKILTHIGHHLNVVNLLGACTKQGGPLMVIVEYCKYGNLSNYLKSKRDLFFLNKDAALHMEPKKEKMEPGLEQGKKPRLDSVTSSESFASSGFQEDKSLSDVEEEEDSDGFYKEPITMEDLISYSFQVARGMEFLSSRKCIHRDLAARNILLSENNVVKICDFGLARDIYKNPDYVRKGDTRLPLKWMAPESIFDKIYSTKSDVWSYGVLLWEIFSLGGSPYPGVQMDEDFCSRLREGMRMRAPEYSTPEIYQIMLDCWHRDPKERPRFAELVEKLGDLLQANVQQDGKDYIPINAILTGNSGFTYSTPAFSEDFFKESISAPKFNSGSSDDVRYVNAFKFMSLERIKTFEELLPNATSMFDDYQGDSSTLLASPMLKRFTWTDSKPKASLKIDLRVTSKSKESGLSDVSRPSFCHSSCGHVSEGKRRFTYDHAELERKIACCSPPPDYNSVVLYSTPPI
Sequence of c-Raf-1 (P04049 whole entry): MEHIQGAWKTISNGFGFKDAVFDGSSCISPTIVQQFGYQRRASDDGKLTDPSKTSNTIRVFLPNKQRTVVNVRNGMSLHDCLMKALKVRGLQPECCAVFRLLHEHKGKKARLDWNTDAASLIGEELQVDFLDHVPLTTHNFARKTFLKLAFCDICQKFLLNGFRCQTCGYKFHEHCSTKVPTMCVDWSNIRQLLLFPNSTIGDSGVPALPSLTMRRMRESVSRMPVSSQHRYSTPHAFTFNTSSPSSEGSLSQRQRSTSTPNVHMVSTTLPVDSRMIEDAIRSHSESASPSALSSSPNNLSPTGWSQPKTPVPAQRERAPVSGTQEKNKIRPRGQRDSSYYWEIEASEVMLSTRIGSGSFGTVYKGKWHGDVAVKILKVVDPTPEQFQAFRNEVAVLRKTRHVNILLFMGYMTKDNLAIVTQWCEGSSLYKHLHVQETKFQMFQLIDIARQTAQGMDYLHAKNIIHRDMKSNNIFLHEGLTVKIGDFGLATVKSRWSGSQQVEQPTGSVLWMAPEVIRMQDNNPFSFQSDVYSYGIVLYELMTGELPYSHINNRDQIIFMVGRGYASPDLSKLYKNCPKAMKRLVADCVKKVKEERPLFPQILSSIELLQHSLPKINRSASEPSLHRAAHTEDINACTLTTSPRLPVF
Sequence of Fms (P07333 20-972): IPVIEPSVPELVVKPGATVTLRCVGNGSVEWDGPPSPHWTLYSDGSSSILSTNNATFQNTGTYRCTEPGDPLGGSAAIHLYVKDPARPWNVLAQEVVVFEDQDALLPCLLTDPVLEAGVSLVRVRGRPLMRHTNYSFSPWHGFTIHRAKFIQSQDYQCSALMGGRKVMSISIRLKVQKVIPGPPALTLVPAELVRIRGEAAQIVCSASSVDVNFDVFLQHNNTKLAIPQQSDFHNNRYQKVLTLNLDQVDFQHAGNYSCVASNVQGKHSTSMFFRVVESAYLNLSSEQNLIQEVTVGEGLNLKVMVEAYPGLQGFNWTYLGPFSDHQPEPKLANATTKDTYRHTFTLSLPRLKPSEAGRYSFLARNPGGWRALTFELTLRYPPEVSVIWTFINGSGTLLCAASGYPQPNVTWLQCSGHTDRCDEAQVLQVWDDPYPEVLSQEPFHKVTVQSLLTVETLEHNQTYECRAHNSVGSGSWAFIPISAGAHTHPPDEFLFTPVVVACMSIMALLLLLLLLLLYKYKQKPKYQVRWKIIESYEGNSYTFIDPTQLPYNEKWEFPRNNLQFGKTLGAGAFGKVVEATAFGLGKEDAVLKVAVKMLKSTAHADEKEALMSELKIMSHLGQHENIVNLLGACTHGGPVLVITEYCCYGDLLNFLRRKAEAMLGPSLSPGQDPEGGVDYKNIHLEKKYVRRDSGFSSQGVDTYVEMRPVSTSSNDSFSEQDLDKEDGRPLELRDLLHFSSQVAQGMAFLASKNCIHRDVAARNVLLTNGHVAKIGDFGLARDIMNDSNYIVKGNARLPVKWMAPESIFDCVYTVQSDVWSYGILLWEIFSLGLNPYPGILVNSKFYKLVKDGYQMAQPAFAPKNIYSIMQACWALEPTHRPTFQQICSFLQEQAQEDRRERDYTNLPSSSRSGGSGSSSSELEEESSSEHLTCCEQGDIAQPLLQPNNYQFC
Sequence of B-Raf (P15056 whole entry): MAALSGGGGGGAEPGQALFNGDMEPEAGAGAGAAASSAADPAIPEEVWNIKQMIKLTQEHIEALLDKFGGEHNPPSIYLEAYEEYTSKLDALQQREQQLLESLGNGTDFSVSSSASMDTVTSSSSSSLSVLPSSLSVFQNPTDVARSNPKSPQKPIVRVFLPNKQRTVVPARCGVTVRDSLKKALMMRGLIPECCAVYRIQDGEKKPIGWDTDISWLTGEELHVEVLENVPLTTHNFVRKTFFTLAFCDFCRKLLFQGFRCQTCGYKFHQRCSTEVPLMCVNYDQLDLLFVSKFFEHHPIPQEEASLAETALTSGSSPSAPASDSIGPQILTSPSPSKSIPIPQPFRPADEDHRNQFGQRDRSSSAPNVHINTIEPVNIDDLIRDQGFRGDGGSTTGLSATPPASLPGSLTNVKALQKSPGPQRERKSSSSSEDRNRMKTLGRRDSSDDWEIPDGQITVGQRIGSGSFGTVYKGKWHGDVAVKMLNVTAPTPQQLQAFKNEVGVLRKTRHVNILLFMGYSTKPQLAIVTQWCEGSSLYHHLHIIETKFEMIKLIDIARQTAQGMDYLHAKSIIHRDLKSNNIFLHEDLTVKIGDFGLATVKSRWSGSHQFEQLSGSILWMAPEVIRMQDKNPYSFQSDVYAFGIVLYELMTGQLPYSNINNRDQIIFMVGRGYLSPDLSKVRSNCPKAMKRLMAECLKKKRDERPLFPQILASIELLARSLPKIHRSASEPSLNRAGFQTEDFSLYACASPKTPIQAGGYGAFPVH
Sequence of B-Raf V600E (P15056 whole entry V600E): as the sequence (P15056 whole entry) above, with V600E counted along it
Sequence of Jnk1 (P45983 whole entry): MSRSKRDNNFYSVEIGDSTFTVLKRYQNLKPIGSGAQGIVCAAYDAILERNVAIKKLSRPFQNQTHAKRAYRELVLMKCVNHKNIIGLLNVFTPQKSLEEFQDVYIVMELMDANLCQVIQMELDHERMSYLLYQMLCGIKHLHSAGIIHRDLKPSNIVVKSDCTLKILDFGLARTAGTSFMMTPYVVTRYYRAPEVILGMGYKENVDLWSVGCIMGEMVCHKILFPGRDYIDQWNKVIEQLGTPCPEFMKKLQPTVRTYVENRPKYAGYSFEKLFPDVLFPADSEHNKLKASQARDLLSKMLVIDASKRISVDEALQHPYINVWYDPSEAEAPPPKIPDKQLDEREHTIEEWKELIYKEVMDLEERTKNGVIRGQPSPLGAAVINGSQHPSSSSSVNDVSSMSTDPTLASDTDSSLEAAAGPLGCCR

O=C(c1c(F)ccc(NS(=O)(=O)c2cccc(OC(F)F)c2)c1F)c1c[nH]c2ncc(Cl)cc12 [Compound P-0016, N-[3-(5-Chloro-1H-pyrrolo[2,3-b]pyridine-3-carbonyl)-2,4-difluoro-phenyl]-3-difluoromethoxy-benzenesulfonamide]
not listed: Btk | Jnk1 | HGK
≤ 10 µM: all other assays above

Cn1cc(-c2cnc3[nH]cc(C(=O)c4c(F)ccc(NS(=O)(=O)c5cccc(OC(F)F)c5)c4F)c3c2)cn1 [Compound P-0020]
not listed: TEC
≤ 10 µM: all other assays above
